Experimental data taken from patent US11612604B2, “Methods of treating cancer with PLK4 inhibitors” (LUDWIG INSTITUTE FOR CANCER RESEARCH LTD, priority 2017, dated 2023).
pIC50: −log10 of the molar value.

Target: T1, PLK4 (Homo sapiens, UniProt O00444)
T1 sequence (O00444 1-970): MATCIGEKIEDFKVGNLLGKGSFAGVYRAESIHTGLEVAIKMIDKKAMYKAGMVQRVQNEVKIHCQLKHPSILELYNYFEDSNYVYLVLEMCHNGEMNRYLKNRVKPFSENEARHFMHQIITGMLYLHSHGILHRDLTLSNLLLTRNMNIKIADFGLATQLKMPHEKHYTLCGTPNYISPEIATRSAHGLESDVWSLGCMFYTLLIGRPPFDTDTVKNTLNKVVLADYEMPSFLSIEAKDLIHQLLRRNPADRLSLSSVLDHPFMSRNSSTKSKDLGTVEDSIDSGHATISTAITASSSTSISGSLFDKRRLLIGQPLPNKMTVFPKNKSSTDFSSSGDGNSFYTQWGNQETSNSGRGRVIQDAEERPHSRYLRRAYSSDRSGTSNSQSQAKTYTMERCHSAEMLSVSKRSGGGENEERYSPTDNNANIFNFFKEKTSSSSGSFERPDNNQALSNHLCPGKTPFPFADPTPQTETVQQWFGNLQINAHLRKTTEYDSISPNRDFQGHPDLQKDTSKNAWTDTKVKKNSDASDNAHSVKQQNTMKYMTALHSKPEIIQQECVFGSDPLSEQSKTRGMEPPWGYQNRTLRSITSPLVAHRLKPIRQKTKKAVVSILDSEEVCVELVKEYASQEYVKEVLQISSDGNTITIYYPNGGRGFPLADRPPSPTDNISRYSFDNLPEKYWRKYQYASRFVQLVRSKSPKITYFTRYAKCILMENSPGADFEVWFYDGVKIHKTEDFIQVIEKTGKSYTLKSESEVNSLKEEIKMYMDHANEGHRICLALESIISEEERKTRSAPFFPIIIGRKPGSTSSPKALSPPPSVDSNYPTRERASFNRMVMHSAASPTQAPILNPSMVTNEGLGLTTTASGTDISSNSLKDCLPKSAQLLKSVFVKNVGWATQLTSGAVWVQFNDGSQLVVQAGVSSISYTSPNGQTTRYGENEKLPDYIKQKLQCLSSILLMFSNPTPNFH
Experiment: Activity (IC50) of the Table 1 compounds as PLK4 inhibitors
Assay type: biochemical
Details: Table 1, IC50 class

| SMILES | pIC50 |
| --- | --- |
| COc1c(Nc2cc(C)[nH]n2)nc(Sc2ccc(S(=O)(=O)Cc3ccccc3)cc2)nc1N1CCC(N2CCN(C)CC2)CC1 | > 7.00 |
| CSc1nc(Nc2cc(C)[nH]n2)c(C)c(N2CCC(O)CC2)n1 | > 7.00 |
| CSc1nc(Nc2cc(C)[nH]n2)c(C)c(N2CCOCC2)n1 | > 7.00 |
| CC(=O)Nc1ccc(Sc2nc(Nc3cc(C)[nH]n3)c(C)c(N3CCN(C(C)C)CC3)n2)cc1 | > 7.00 |
| CC(=O)Nc1ccc(Sc2nc(Nc3cc(C)[nH]n3)c(C)c(N3CCN(C(=O)C(C)C)CC3)n2)cc1 | > 7.00 |
| CNCC(=O)N1CCN(c2nc(Sc3ccc(NC(C)=O)cc3)nc(Nc3cc(C)[nH]n3)c2OC)CC1 | > 7.00 |
| COc1c(Nc2cc(C)[nH]n2)nc(Sc2ccc(NC(C)=O)cc2)nc1N1CCN(C(=O)CN(C)C)CC1 | > 7.00 |
| CNC1CCN(c2nc(Sc3ccc(NC(C)=O)cc3)nc(Nc3cc(C)[nH]n3)c2C)CC1 | > 7.00 |
| CC(=O)Nc1ccc(Sc2nc(Nc3cc(C)[nH]n3)c(C)c(N3CCC(C(C)=O)CC3)n2)cc1 | > 7.00 |
| COc1c(Nc2cc(C)[nH]n2)nc(Sc2ccc(NC(C)=O)cc2)nc1N1CCN(C(C)C)CC1 | > 7.00 |
| CNCC(=O)C1CCN(c2nc(Sc3ccc(NC(C)=O)cc3)nc(Nc3cc(C)[nH]n3)c2OC)CC1 | > 7.00 |
| Cc1cc(Nc2nc(Sc3ccccc3)nc(N(C)C)c2C)n[nH]1 | > 7.00 |
| CNC(=O)Nc1ccc(Sc2nc(Nc3cc(C)[nH]n3)c(C)c(N3CCC(O)CC3)n2)cc1 | > 7.00 |
| CNC(=O)Nc1ccc(Sc2nc(Nc3cc(C)[nH]n3)c(C)c(N3CCOCC3)n2)cc1 | > 7.00 |
| Cc1cc(Nc2nc(Sc3ccccc3)nc(N3CCC(O)CC3)c2C)n[nH]1 | > 7.00 |
| COc1c(Nc2cc(C)[nH]n2)nc(Sc2ccc(S(=O)(=O)Cc3ccccc3)cc2)nc1N1CCN(CCN2CCCC2)CC1 | > 7.00 |
| Cc1cc(Nc2nc(Sc3ccccc3)nc(N3CCOCC3)c2C)n[nH]1 | > 7.00 |
| CC(=O)Nc1ccc(Sc2nc(Nc3cc(C)[nH]n3)c(C)c(N3CCC(N)CC3)n2)cc1 | > 7.00 |
| CC(=O)Nc1ccc(Sc2nc(Nc3cc(C)[nH]n3)c(C)c(N3CCC(N(C)C)CC3)n2)cc1 | > 7.00 |
| CC(=O)Nc1ccc(Sc2nc(Nc3cc(C)[nH]n3)c(C)c(N3CCC(C)(O)CC3)n2)cc1 | > 7.00 |
| CCN(CC)c1nc(Sc2ccc(NC(C)=O)cc2)nc(Nc2cc(C)[nH]n2)c1C | > 7.00 |
| Cc1cc(Nc2nc(Sc3ccc(N)cc3)nc(N3CCC(O)CC3)c2C)n[nH]1 | > 7.00 |
| Cc1cc(Nc2nc(Sc3ccc(N)cc3)nc(N3CCOCC3)c2C)n[nH]1 | > 7.00 |

Second part, the compound after the results:

| pIC50 | SMILES |
| --- | --- |
| > 7.00 | CCN(CC)c1nc(Sc2ccc(NC(=O)C3CC3)cc2)nc(Nc2cc(C)[nH]n2)c1C |
| > 7.00 | Cc1cc(Nc2nc(Sc3ccc(NC(=O)C4CC4)cc3)nc(Cl)c2C)n[nH]1 |
| > 7.00 | Cc1cc(Nc2nc(Sc3ccc(NC(=O)C4CC4)cc3)nc(N(C)CCN(C)C)c2C)n[nH]1 |
| > 7.00 | Cc1cc(Nc2nc(Sc3ccc(NC(=O)C4CC4)cc3)nc(NCCN(C)C)c2C)n[nH]1 |
| > 7.00 | COc1c(Nc2cc(C)[nH]n2)nc(Sc2ccc(NC(C)=O)cc2)nc1N1CC=C(F)CC1 |
| > 7.00 | COc1c(Nc2cc(C)[nH]n2)nc(Sc2ccc(NC(C)=O)cc2)nc1N1CCC(C(C)=O)CC1 |
| > 7.00 | COc1c(Nc2cc(C)[nH]n2)nc(Sc2ccc(NC(C)=O)cc2)nc1N1CCC(N)CC1 |
| > 7.00 | COc1c(Nc2cc(C)[nH]n2)nc(Sc2ccc(NC(C)=O)cc2)nc1N1CCC(N(C)C)CC1 |
| > 7.00 | CC(=O)Nc1ccc(Sc2nc(Nc3cc(C)[nH]n3)c(C)c(N3CCC(CCN(C)C)CC3)n2)cc1 |
| > 7.00 | CCN1CCN(c2nc(Sc3ccc(NC(C)=O)cc3)nc(Nc3cc(C)[nH]n3)c2OC)CC1 |
| > 7.00 | COc1c(Nc2cc(C)[nH]n2)nc(Sc2ccc(NC(C)=O)cc2)nc1N1CCN(C(=O)C(C)C)CC1 |
| > 7.00 | CCC(=O)N1CCN(c2nc(Sc3ccc(NC(C)=O)cc3)nc(Nc3cc(C)[nH]n3)c2OC)CC1 |
| > 7.00 | COc1c(Nc2cc(C)[nH]n2)nc(Sc2ccc(S(=O)(=O)Cc3ccccc3)cc2)nc1N1CCN(C2CCN(C)CC2)CC1 |
